Laboratory results published in PMC4037565 (Organic & biomolecular chemistry, 2013).
Square brackets hold non-standard residues; d marks the D form. Peptide text beside a SMILES is read from it. Lys(N3) = [N-]=[N+]=NCCCC[C@H](N)C(=O)O; Orn = NCCC[C@H](N)C(=O)O; Pra = C#CC[C@H](N)C(=O)O

Legend:
[1] = Solubility under NMR/CD buffer conditions; format: physicochemical; details: 50 mM KD2PO4, pH 7, 20°C
[2] = read-out: Kd / binding constant for ATP; parent peptide; cited from earlier work

| Molecule | solubility (observation) [1] | Kd [2] |
| --- | --- | --- |
| C#CC[C@H](NC(=O)[C@H](CCCNC(=N)N)NC(C)=O)C(=O)N[C@H](C(=O)N[C@@H](CCCCN)C(=O)N[C@H](C(=O)N[C@@H](CC(N)=O)C(=O)NCC(=O)N[C@@H](CCCN)C(=O)N[C@@H](Cc1c[nH]c2ccccc12)C(=O)N[C@H](C(=O)N[C@@H](CCCCN=[N+]=[N-])C(=O)N[C@@H](CCC(N)=O)C(N)=O)[C@@H](C)CC)C(C)C)C(C)C [NHB-rev-U] (Ac-R[Pra]VKVNG[Orn]WI[Lys(N3)]Q-NH2) | not fully soluble and formed a gel-like substance |  |
| Ac-RWVKVNGOWIKQ-NH2 [WKWK] |  | 170 µM |
